Like-named read-outs stand apart in the source and are kept apart here.
Columns and labels:
[1] = organic solvents such as toluene; cited from earlier work
26-10 Fab = assay type: binding, murine
Description: (§1) After the plates were washed and blocked with 1% horse serum in PBSA, solutions ([…]) containing 26-10 Fab or the BABS in either PBSA or 0.01 M sodium acetate at pH 5.5 were added to the wells and incubated 2-3 hrs at room temperature.

BABS = test: Radioimmunoassay, inhibition of 125I-digoxin binding to BABS by cardiac glycosides; set-up: species or system murine
Description: as §1

[2] = test system: biosynthetic protein (FB-sFv 26-10); test: Inhibition of 125I-dig-lysine binding by unlabelled cardiac glycosides; set-up: species or system murine; conditions: unlabelled glycoside; compared with parent 26-10 Fab
Excerpt: Properties of the binding site were probed by a modification of an assay developed by Mudgett-Hunter et al. (J. Immunol. (1982) 129:1165-1172; Molec. Immunol. (1985) 22:477-488), so that it could be run on microtiter plates as a solid phase sandwich assay. Binding data were collected using goat anti-murine Fab antisera (gAmFab) as the primary antibody that initially coats the wells of the plate. These are polyclonal antisera which recognize epitopes that appear to reside mostly on framework regions.
These are polyclonal antisera which recognize epitopes that appear to reside mostly on framework regions.

[3] = Oleandrin transport through supported liquid membrane without binding protein; conditions: absence of binding protein
Excerpt: (§2) A hollow fiber device was constructed using 100×17.8 cm PAN fibers, produced by Sepracor, Inc., Marlborough, Mass. Each PAN fiber is a tubular membrane having a wall thickness of 50 μm and an internal diameter of 205 μm. Thus, this device contains a geometric surface area of 115 cm^2 of PAN fiber. The associated fluid handling equipment comprised two peristaltic pumps, one for the shell loop and one for the luman loop, a pressure gauge on the shell loop for determining the pressure drop from the shell side to the lumen side, and a throttling valve for creating a positive pressure on the shell side.
The device was first washed with 1 L of water. This washing involved convecting water through the lumen, through the shell, and through the PAN fibers from shell-side to lumen.
Following the washing procedure, the liquid membrane was put in place. A buffer solution of the same composition as that in which the FB-sFv protein was dissolved (50 mM sodium chloride) was pumped through the fibers, from the shell-side to the lumen. Approximately 100 mls of buffer solution were convected through the fibers. […]
Oleandrin is a cardiac glycoside having a molecular weight of 576, and an organic to aqueous partition coefficient between 1-octanol and water of 338 (Cohnen et al, Drug Res. 28 (II), Heft 12, 1978). […] The quantity of oleandrin contained in each lumen reservoir sample was determined by HPLC.

FB-sFv 26-10 = test: Oleandrin facilitated transport through supported liquid membrane containing FB-sFv 26-10; set-up: species or system murine
Excerpt: as §2
The fluid loops were then drained. 100 mls of buffer containing 10.0 mgs of FB-sFv 26-10 produced as disclosed above were then slowly ultrafiltered from the shell loop at a pressure of 10 psi. […] After this time, no bulk fluid, either aqueous or organic, was present in either loop. […] Since an optical density of 1.0 at 280 nm indicates a protein concentration of 1.0 mg/ml, the filtrate contained 4.0 mgs protein. 6.0 mgs of FB-sFv 26-10 were therefore assumed to be contained in the supported liquid membrane.
Octanol saturated with buffer, but not containing oleandrin, was then convected through each loop, with the 10 psi pressure differential across the supported liquid membrane. Once uninterrupted convection through each loop was established, the shell loop reservoir was replaced with a reservoir containing 500 mls of octanol saturated with buffer, and containing 2.0 mg/ml oleandrin. The lumen reservoir was replaced with a reservoir containing 50 mls of buffer saturated octanol, containing no oleandrin. Over a 24 hour period, no convective flow of octanol through the supported liquid membrane occurred.
During this period, successive 1 ml samples of the lumen reservoir were taken. In order not to disturb the volume of the lumen reservoir, the octanol taken in each sample was replaced with 1 ml of buffer saturated octanol after drawing each sample. The quantity of oleandrin contained in each lumen reservoir sample was determined by HPLC.

[4] = Partition coefficient of oleandrin; assay type: physicochemical; conditions: 1-octanol and water; read-out: aqueous to organic coefficient S
[5] = 1-octanol and water; cited from earlier work
[6] = normalizing glycoside digoxigenin

CCOC(=O)C(C)c1ccc2cc(OC)ccc2c1 (racemic) [racemic ethyl ester of naproxen, ethyl ester of naproxen]
solubility in organic solvents [1]: to the extent of moles per liter

CC(=O)OC1CCC2(C=O)C3CCC4(C)C(C5=CC(=O)OC5)CCC4(O)C3CCC2(O)C1 (centres unmarked) [Acetyl Strophanthidin, acetyl strophanthidin]
normalized concentration of inhibitor giving 50% inhibition of 125I-digoxin binding (26-10 Fab; [6]): 1.1
normalized concentration of inhibitor giving 50% inhibition of 125I-digoxin binding (26-10 Fab; normalizing glycoside digoxin): 1.3
normalized concentration of inhibitor giving 50% inhibition of 125I-digoxin binding (BABS; [6]): 0.8
normalized concentration of inhibitor giving 50% inhibition of 125I-digoxin binding (BABS; normalizing glycoside digoxin): 5.9
inhibition of binding of 125I-dig-lysine [2]: can be inhibited

C[C@]12CC[C@H](O)C[C@H]1CC[C@@H]1[C@@H]2CC[C@]2(C)[C@@H](C3=CC(=O)OC3)CC[C@]12O [Digitoxigenin, digitoxigenin]
normalized concentration of inhibitor giving 50% inhibition of 125I-digoxin binding (26-10 Fab; [6]): 0.9
normalized concentration of inhibitor giving 50% inhibition of 125I-digoxin binding (26-10 Fab; normalizing glycoside digoxin): 1.0
normalized concentration of inhibitor giving 50% inhibition of 125I-digoxin binding (BABS; [6]): 0.4
normalized concentration of inhibitor giving 50% inhibition of 125I-digoxin binding (BABS; normalizing glycoside digoxin): 2.6
inhibition of binding of 125I-dig-lysine [2]: can be inhibited

C[C@H]1O[C@@H](O[C@H]2[C@@H](O)C[C@H](O[C@H]3[C@@H](O)C[C@H](O[C@H]4CC[C@@]5(C)[C@H](CC[C@@H]6[C@@H]5CC[C@]5(C)[C@@H](C7=CC(=O)OC7)CC[C@]65O)C4)O[C@@H]3C)O[C@@H]2C)C[C@H](O)[C@@H]1O [Digitoxin, digitoxin]
normalized concentration of inhibitor giving 50% inhibition of 125I-digoxin binding (26-10 Fab; [6]): 0.8
normalized concentration of inhibitor giving 50% inhibition of 125I-digoxin binding (26-10 Fab; normalizing glycoside digoxin): 0.9
normalized concentration of inhibitor giving 50% inhibition of 125I-digoxin binding (BABS; [6]): 0.3
normalized concentration of inhibitor giving 50% inhibition of 125I-digoxin binding (BABS; normalizing glycoside digoxin): 2.0
inhibition of binding of 125I-dig-lysine [2]: can be inhibited

C[C@]12CC[C@H](O)C[C@H]1CC[C@@H]1[C@@H]2C[C@@H](O)[C@]2(C)[C@@H](C3=CC(=O)OC3)CC[C@]12O [Digoxigenin, digoxigenin]
normalized concentration of inhibitor giving 50% inhibition of 125I-digoxin binding (26-10 Fab; [6]): 1.0
normalized concentration of inhibitor giving 50% inhibition of 125I-digoxin binding (26-10 Fab; normalizing glycoside digoxin): 1.2
normalized concentration of inhibitor giving 50% inhibition of 125I-digoxin binding (BABS; [6]): 1.0
normalized concentration of inhibitor giving 50% inhibition of 125I-digoxin binding (BABS; normalizing glycoside digoxin): 7.3
inhibition of binding of 125I-dig-lysine [2]: can be inhibited

C[C@H]1O[C@@H](O[C@H]2[C@@H](O)C[C@H](O[C@H]3[C@@H](O)C[C@H](O[C@H]4CC[C@@]5(C)[C@H](CC[C@@H]6[C@@H]5C[C@@H](O)[C@]5(C)[C@@H](C7=CC(=O)OC7)CC[C@]65O)C4)O[C@@H]3C)O[C@@H]2C)C[C@H](O)[C@@H]1O [Digoxin, digoxin]
normalized concentration of inhibitor giving 50% inhibition of 125I-digoxin binding (26-10 Fab; [6]): 0.9
normalized concentration of inhibitor giving 50% inhibition of 125I-digoxin binding (26-10 Fab; normalizing glycoside digoxin): 1.0
normalized concentration of inhibitor giving 50% inhibition of 125I-digoxin binding (BABS; [6]): 0.1
normalized concentration of inhibitor giving 50% inhibition of 125I-digoxin binding (BABS; normalizing glycoside digoxin): 1.0
inhibition of binding of 125I-dig-lysine [2]: can be inhibited

C[C@H]1O[C@@H](O[C@H]2[C@@H](O)C[C@H](O[C@H]3[C@@H](O)C[C@H](O[C@H]4CC[C@@]5(C)[C@H](CC[C@@H]6[C@@H]5CC[C@]5(C)[C@@H](C7=CC(=O)OC7)[C@@H](O)C[C@]65O)C4)O[C@@H]3C)O[C@@H]2C)C[C@H](O)[C@@H]1O [Gitoxin, gitoxin]
normalized concentration of inhibitor giving 50% inhibition of 125I-digoxin binding (26-10 Fab; [6]): 8.1
normalized concentration of inhibitor giving 50% inhibition of 125I-digoxin binding (26-10 Fab; normalizing glycoside digoxin): 9.6
normalized concentration of inhibitor giving 50% inhibition of 125I-digoxin binding (BABS; [6]): 8.5
normalized concentration of inhibitor giving 50% inhibition of 125I-digoxin binding (BABS; normalizing glycoside digoxin): 62
inhibition of binding of 125I-dig-lysine [2]: can be inhibited

CO[C@H]1C[C@H](O[C@H]2CC[C@@]3(C)[C@H](CC[C@@H]4[C@@H]3CC[C@]3(C)[C@@H](C5=CC(=O)OC5)[C@@H](OC(C)=O)C[C@]43O)C2)O[C@@H](C)[C@@H]1O [Oleandrin, oleandrin]
inhibition of binding of 125I-dig-lysine [2]: can be inhibited
first order polynomial (slope) of change in oleandrin concentration [3]: 0.0023 mg/mL/h
initial flux of oleandrin (FB-sFv 26-10; BABS-containing membrane): 4.9×10^-12 gmole/sec-cm^2
average flux of oleandrin (FB-sFv 26-10; BABS-containing membrane, 24-hour): 2.9×10^-12 gmole/sec-cm^2
first order polynomial (slope) of change in oleandrin concentration (FB-sFv 26-10; presence of binding protein, time zero): 0.0215 mg/mL/h
initial increase of oleandrin flux (FB-sFv 26-10; with vs without 26-10 protein): 9.3 fold
aqueous to organic partition coefficient [4]: ~0.003
organic to aqueous partition coefficient [5]: 338

C[C@@H]1O[C@@H](O[C@H]2C[C@@H](O)[C@]3(CO)[C@H]4[C@H](O)C[C@]5(C)[C@@H](C6=CC(=O)OC6)CC[C@]5(O)[C@@H]4CC[C@]3(O)C2)[C@H](O)[C@H](O)[C@H]1O [Ouabain, ouabain]
normalized concentration of inhibitor giving 50% inhibition of 125I-digoxin binding (26-10 Fab; [6]): 13
normalized concentration of inhibitor giving 50% inhibition of 125I-digoxin binding (26-10 Fab; normalizing glycoside digoxin): 15
normalized concentration of inhibitor giving 50% inhibition of 125I-digoxin binding (BABS; [6]): 21
normalized concentration of inhibitor giving 50% inhibition of 125I-digoxin binding (BABS; normalizing glycoside digoxin): 150
inhibition of binding of 125I-dig-lysine [2]: can be inhibited

Source: US5167824A, “Separation by carrier mediated transport” (priority 1990, dated 1992)
